# Molecular target: T1, PDE5A1 (Homo sapiens, UniProt O76074)
# T1 construct: from tissue; host or cells: human platelets from fresh donor blood (10,000 x g supernatant of sonicated lysate)
# Assay: Inhibition of type 5 phosphodiesterase (PDE5) activity, modified SPA test with human platelet lysate
# Format: biochemical
# Details: 0.5 μM cGMP, read-out: PDE5A1 inhibitory values [measured as −log IC50 (mol/l)] (converted)
# Description: Method for Measuring Inhibition of the Type 5 Phosphodiesterase (PDE5) Activity:
# As a source for human PDE5, platelets are used. For that purpose, 150 ml fresh blood from human donors anticoagulated with citrate [final concentration 0.3% (w/v)] is centrifuged at 200 g for 10 min to obtain the so-called platelet-rich-plasma (PRP) as a supernatant. 1/10 volume of ACD solution (85 mM Na3-citrate, 111 mM D-glucose, 71 mM citric acid, pH 4.4) is added to 9/10 volume of PRP. After centrifugation (1,400 g, 10 min) the cell pellet is resuspended in 3 ml homogenization buffer (NaCl 140 mM, KCl 3.8 mM, EGTA (ethylene glycol tetraacetic acid) 1 mM, MgCl2 1 mM, Tris-HCl 20 mM, beta-mercaptoethanol 1 mM, pH 8.2) plus protease-inhibitor mix giving rise to the final concentrations of 0.5 mM Pefablock (Roche), 10 μM Leupeptin, 5 μM Trypsininhibitor, 2 mM Benzamidin and 10 μM Pepstatin A. The suspension is sonified and thereafter centrifuged for 15 min at 10,000 g. The resulting supernatant (platelet lysate) is used for enzymatic testings.
# PDE5A1 activity is inhibited by the compounds of the present subject matter in a modified SPA (scintillation proximity assay) test, supplied by Amersham Biosciences (see procedural instructions “phosphodiesterase [3H]cAMP SPA enzyme assay, code TRKQ 7090”), carried out in 96-well microtitre plates (MTP's). The test volume is 100 μl and contains 20 mM Tris buffer (pH 7.4), 0.1 mg of BSA (bovine serum albumin)/ml, 5 mM Mg^2+, 1 μM motapizone, 10 nM PDE2 inhibitor 2-(3,4-dimethoxybenzyl)-7-[(1R,2R)-2-hydroxy-1-(2-phenylethyl)propyl]-5-methylimidazo[5,1-f][1,2,4]triazin-4(3H)-one, 0.5 μM cGMP (cyclic guanosine monophosphate) (including about 50,000 cpm of [3H]cGMP as a tracer), 1 μl of the respective compound dilution in dimethylsulfoxide (DMSO) and sufficient PDE5-containing platelet lysat (10,000×g supernatant, see above) to ensure that 10-20 wt % of the cGMP is converted under the said experimental conditions. […] After a preincubation of 5 min at 37° C., the reaction is started by adding the substrate (cGMP) and the assay is incubated for a further 15 min; after that, it is stopped by adding SPA beads (50 μl). In accordance with the manufacturer's instructions, the SPA beads had previously been resuspended in water, but are then diluted 1:3 (v/v) in water; the diluted solution also contains 3 mM […] (IBMX) to ensure a complete PDE activity stop. After the beads have been sedimented (>30 min), the MTP's are analyzed in commercially available luminescence detection devices. The corresponding IC50 values of the compounds for the inhibition of PDE activity are determined from the concentration-effect curves by means of non-linear regression.
row,Structure (SMILES),IC50 [nM]
1,"CCC(=O)N1CC[C@H](NC(=O)c2c(C)[nH]c3c(-c4ccc(F)cc4OCC4CC4)ncnc23)[C@@H](O)C1 (relative stereo) [Example E35, 4-[2-(Cyclopropylmethoxy)-4-fluorophenyl]-N-[(3S*,4S*)-3-hydroxy-1-propanoylpiperidin-4-yl]-6-methyl-5H-pyrrolo[3,2-d]pyrimidine-7-carboxamide]",< 1
2,"COCC(=O)N[C@H]1CC[C@H](NC(=O)c2c(C)[nH]c3c(-c4cc(F)c(OC)cc4OCC4CC4)ncnc23)CC1 [Example E137, 4-[2-(Cyclopropylmethoxy)-5-fluoro-4-methoxyphenyl]-N-{trans-4-[(methoxyacetyl)amino]cyclohexyl}-6-methyl-5H-pyrrolo[3,2-d]pyrimidine-7-carboxamide]",< 1
3,"CCC(=O)N1CCC(NC(=O)c2c(C)[nH]c3c(-c4ccc(F)cc4OCC4CC4)ncnc23)CC1 [Example E20, 4-[2-(Cyclopropylmethoxy)-4-fluorophenyl]-6-methyl-N-(1-propionylpiperidin-4-yl)-5H-pyrrolo[3,2-d]pyrimidine-7-carboxamide]",< 1
4,"COCC(=O)N1CC[C@@H](NC(=O)c2c(C)[nH]c3c(-c4cc(F)c(OC)cc4OCC4CC4)ncnc23)[C@H](O)C1 (relative stereo) [Example E144, 4-[2-(Cyclopropylmethoxy)-5-fluoro-4-methoxyphenyl]-N-[(3R*,4R*)-3-hydroxy-1-(methoxyacetyl)piperidin-4-yl]-6-methyl-5H-pyrrolo[3,2-d]pyrimidine-7-carboxamide]",< 1
5,"CCOc1ccc(F)cc1-c1ncnc2c(C(=O)NC3CCN(C(=O)CC)CC3)c(C)[nH]c12 [Example E53, 4-(2-Ethoxy-5-fluorophenyl)-6-methyl-N-(1-propanoylpiperidin-4-yl)-5H-pyrrolo[3,2-d]pyrimidine-7-carboxamide]",1 to 10
6,"CCC(=O)N1CCC(NC(=O)c2c(C)[nH]c3c(-c4cc(C(C)=O)ccc4OCC4CC4)ncnc23)CC1 [Example E164, 4-[5-Acetyl-2-(cyclopropylmethoxy)phenyl]-6-methyl-N-(1-propanoylpiperidin-4-yl)-5H-pyrrolo[3,2-d]pyrimidine-7-carboxamide]",< 1
7,"CC(=O)N1CCC(NC(=O)c2c(C)[nH]c3c(-c4c(OCC5CC5)ccc5c4OCO5)ncnc23)CC1 [Example E1, N-(1-Acetylpiperidin-4-yl)-4-[5-(cyclopropylmethoxy)-1,3-benzodioxol-4-yl]-6-methyl-5H-pyrrolo[3,2-d]pyrimidine-7-carboxamide]",< 1
8,"CC(=O)N[C@H]1CC[C@@H](NC(=O)c2c(C)[nH]c3c(-c4cc(C(C)C)ccc4OCC4CC4)ncnc23)CC1 [Example E161, N-[cis-4-(Acetylamino)cyclohexyl]-4-[2-(cyclopropylmethoxy)-5-(propan-2-yl)phenyl]-6-methyl-5H-pyrrolo[3,2-d]pyrimidine-7-carboxamide]",< 1
9,"COCC(=O)N1CCC(NC(=O)c2c(C)[nH]c3c(-c4cc(OC)c(F)cc4OCC4CC4)ncnc23)CC1 [Example E104, 4-[2-(Cyclopropylmethoxy)-4-fluoro-5-methoxyphenyl]-N-[1-(methoxyacetyl)piperidin-4-yl]-6-methyl-5H-pyrrolo[3,2-d]pyrimidine-7-carboxamide]",< 1
10,"COCC(=O)N[C@H]1CC[C@@H](NC(=O)c2c(C)[nH]c3c(-c4cc(OC)c(F)cc4OCC4CC4)ncnc23)CC1 [Example E112, 4-[2-(Cyclopropylmethoxy)-4-fluoro-5-methoxyphenyl]-N-{cis-4-[(methoxyacetyl)amino]cyclohexyl}-6-methyl-5H-pyrrolo[3,2-d]pyrimidine-7-carboxamide]",< 1
11,"COCC(=O)N1CC[C@@H](NC(=O)c2c(C)[nH]c3c(-c4cc(OC)ccc4OCC4CC4)ncnc23)C1 [Example E77, 4-[2-(Cyclopropylmethoxy)-5-methoxyphenyl]-N-[(3R)-1-(methoxyacetyl)pyrrolidin-3-yl]-6-methyl-5H-pyrrolo[3,2-d]pyrimidine-7-carboxamide]",< 1
12,"COCC(=O)N1CCC(NC(=O)c2c(C)[nH]c3c(-c4cc(C(C)C)ccc4OCC4CC4)ncnc23)CC1 [Example E158, 4-[2-(Cyclopropylmethoxy)-5-(propan-2-yl)phenyl]-N-[1-(methoxyacetyl)piperidin-4-yl]-6-methyl-5H-pyrrolo[3,2-d]pyrimidine-7-carboxamide]",1 to 10

# Further lines, results first:
row,IC50 [nM],Structure (SMILES)
1,< 1,"Cc1cc(-c2ncnc3c(C(=O)NC4CCN(C(=O)[C@H](C)O)CC4)c(C)[nH]c23)c(OCC2CC2)cc1F [Example F76, 4-[2-(Cyclopropylmethoxy)-4-fluoro-5-methylphenyl]-N-{1-[(2S)-2-hydroxypropanoyl]piperidin-4-yl}-6-methyl-5H-pyrrolo[3,2-d]pyrimidine-7-carboxamide]"
2,< 1,"Cc1cc(-c2ncnc3c(C(=O)N[C@H]4CC[C@H](NC(=O)[C@H](C)O)CC4)c(C)[nH]c23)c(OCC2CC2)cc1F [Example F78, 4-[2-(Cyclopropylmethoxy)-4-fluoro-5-methylphenyl]-N-(trans-4-{[(2S)-2-hydroxypropanoyl]amino}cyclohexyl)-6-methyl-5H-pyrrolo[3,2-d]pyrimidine-7-carboxamide]"
3,< 1,"COc1ccc(-c2ncnc3c(C(=O)N[C@H]4CC[C@H](NC(=O)[C@H](C)O)CC4)c(C)[nH]c23)c(OCC2CC2)c1 [Example F36, 4-[2-(Cyclopropylmethoxy)-4-methoxyphenyl]-N-(trans-4-{[(2S)-2-hydroxypropanoyl]amino}cyclohexyl)-6-methyl-5H-pyrrolo[3,2-d]pyrimidine-7-carboxamide]"
4,< 1,"COc1cc(OCC2CC2)c(-c2ncnc3c(C(=O)N[C@@H]4CCN(C(=O)CO)C4)c(C)[nH]c23)cc1F [Example F115, 4-[2-(Cyclopropylmethoxy)-5-fluoro-4-methoxyphenyl]-N-[(3R)-1-glycoloylpyrrolidin-3-yl]-6-methyl-5H-pyrrolo[3,2-d]pyrimidine-7-carboxamide]"
5,< 1,"COc1cc(OCC2CC2)c(-c2ncnc3c(C(=O)N[C@@H]4CCN(C(C)=O)C4)c(C)[nH]c23)cc1F [Example E186, N-[(3R)-1-Acetylpyrrolidin-3-yl]-4-[2-(cyclopropylmethoxy)-5-fluoro-4-methoxyphenyl]-6-methyl-5H-pyrrolo[3,2-d]pyrimidine-7-carboxamide]"
6,< 1,"COCC(=O)N1C[C@@H](O)[C@H](NC(=O)c2c(C)[nH]c3c(-c4cc(F)c(OC)cc4OCC4CC4)ncnc23)C1 (relative stereo) [Example E191, 4-[2-(Cyclopropylmethoxy)-5-fluoro-4-methoxyphenyl]-N-[(3R*,4R*)-4-hydroxy-1-(methoxyacetyl)pyrrolidin-3-yl]-6-methyl-5H-pyrrolo[3,2-d]pyrimidine-7-carboxamide]"
7,< 1,"CCC(=O)N1C[C@@H](O)[C@H](NC(=O)c2c(C)[nH]c3c(-c4cc(OC)c(F)cc4OCC4CC4)ncnc23)C1 (relative stereo) [Example E184, 4-[2-(Cyclopropylmethoxy)-4-fluoro-5-methoxyphenyl]-N-[(3R*,4R*)-4-hydroxy-1-propionylpyrrolidin-3-yl]-6-methyl-5H-pyrrolo[3,2-d]pyrimidine-7-carboxamide]"
8,< 1,"COc1cc(OCC2CC2)c(-c2ncnc3c(C(=O)N[C@H]4CC[C@@H](NC(=O)[C@H](C)O)CC4)c(C)[nH]c23)cc1F [Example F88, 4-[2-(Cyclopropylmethoxy)-5-fluoro-4-methoxyphenyl]-N-(cis-4-{[(2S)-2-hydroxypropanoyl]amino}cyclohexyl)-6-methyl-5H-pyrrolo[3,2-d]pyrimidine-7-carboxamide]"
9,< 1,"COc1cc(-c2ncnc3c(C(=O)N[C@@H]4CN(C(C)=O)C[C@H]4O)c(C)[nH]c23)c(OCC2CC2)cc1F (relative stereo) [Example E183, N-[(3R*,4R*)-1-Acetyl-4-hydroxypyrrolidin-3-yl]-4-[2-(cyclopropylmethoxy)-4-fluoro-5-methoxyphenyl]-6-methyl-5H-pyrrolo[3,2-d]pyrimidine-7-carboxamide]"

# Source: US9376442B2, “Methylpyrrolopyrimidinecarboxamides” (Takeda GmbH, priority 2009, dated 2016)
